Measurements as given in US10716859B2, “Excipients for stabilising viral particles, polypeptides or biological material” (priority 2010, dated 2020).

What was measured:
[1] = tested on: Recombinant adenovirus expressing enhanced GFP; experiment: Recovered adenoviral activity after 7 days at 4° C. or 37° C. with glycinergics or SMM (Example 4); type: cell-based; conditions: one week at 37° C.
white cell fraction = experiment: White cell viability in human blood diluted with excipients, Guava Viacount (Example 18); type: cell-based; conditions: equal volume dilution, 25° C. for 30 minutes
[2] = 0.07 M, sole excipient (no sugars)
[3] = 0.07 M, with sugars (1M Sucrose, 100 mM Raffinose)
[4] = 0.70 M, sole excipient (no sugars)
[5] = 0.70 M, with sugars (1M Sucrose, 100 mM Raffinose)

Compound | recovered viral activity [1, 2] | recovered viral activity [1, 3] | recovered viral activity [1, 4] | recovered viral activity [1, 5] | effect on white cell viability in the blood sample (white cell fraction) | recovered viral activity ([1]; 0.23 M, sole excipient (no sugars))
CN(C)CC(=O)O [DMG, N,N-Dimethylglycine] | 27% | 37% | 41% | 52% | no adverse effects | 
C[S+](C)CC[C@H](N)C(=O)O [SMM, S-methyl-L-methionine] | 33% |  |  |  |  | 43%
C[N+](C)(C)CC(=O)O [TMG, N,N,N-trimethylglycine] | 21% | 45% | 45% | 38.7% |  | 
NCC(=O)O [glycine, Glycine, reference compound] | 29% | 41% | 45% | 54% |  | 
CNCC(=O)O [sarcosine, N-Methyl-glycine] | 29% | 37% | 49% | 56% |  | 
